In brackets after ≈: the same amount, converted by molar mass. Like-named read-outs stand apart in the source and are kept apart here.
Experiments:
Format in all cases: cell-based
Staph. epi = assay: in vitro agar dilution assay (MIC), Staph. epi; conditions: read-out: Agar Dilution MIC
Strep. D = assay: in vitro agar dilution assay (MIC), Strep. D; conditions: for MIC: read-out: Agar Dilution MIC
Description: (§1) A typical and preferred compound provided by this invention is 7-(thieno[3,2-b]thien-2-yl)glycylamido-3-methyl-3-cephem-4-carboxylic acid, the compound illustrated in Example 1. The antibacterial activity of this compound and others of the invention has been determined in standard in vitro agar dilution assays against a variety of gram positive microorganisms. The following Tables present typical minimum inhibitory concentrations (MIC's) in μg/ml for several compounds of the invention when evaluated against the indicated microorganisms. MIC's for several known compounds are also presented for comparison.

E. coli = assay: in vitro agar dilution assay (MIC), E. coli; conditions: Escherichia coli
Strep. PN = assay: in vitro agar dilution assay (MIC), Strep. PN; conditions: read-out: Agar Dilution MIC
Description: as §1

Staph. aureus = assay: in vitro agar dilution assay (MIC), Staph. aureus; conditions: Staphylococcus aureus
Klebsiella = assay: in vitro agar dilution assay (MIC), Klebsiella
H. influ. = assay: in vitro agar dilution assay (MIC), H. influ.
Strep. A = assay: in vitro agar dilution assay (MIC), Strep. A; conditions: read-out: Agar Dilution MIC
Description: as §1

[1] = read-out: Agar Dilution MIC, Staph. aureus strain S13E
[2] = Klebsiella strain X26, read-out: Agar Dilution MIC
[3] = Klebsiella strain X68, read-out: Agar Dilution MIC
[4] = Staph. aureus strain X400, read-out: Agar Dilution MIC
[5] = Staph. aureus strain X1.1, read-out: Agar Dilution MIC
[6] = Klebsiella strain KAE, read-out: Agar Dilution MIC
[7] = Staph. aureus strain V41, read-out: Agar Dilution MIC

| SMILES | MIC (Staph. epi; Staph. epi strain EPI1) [µg/mL] | MIC (Strep. D; Strep. D strain 2041) [µg/mL] | MIC (E. coli; E. coli strain EC14) [µg/mL] | MIC (E. coli; E. coli strain N10) [µg/mL] | MIC (Strep. PN; Strep. PN strain PARK) [µg/mL] | MIC (Staph. aureus; [1]) [µg/mL] | MIC (Klebsiella; [2]) [µg/mL] | MIC (Klebsiella; [3]) [µg/mL] | MIC (H. influ.; H. influ. strain 76) [µg/mL] | MIC (H. influ.; H. influ. strain C.L.) [µg/mL] | MIC (Strep. A; Strep. A strain C203) [µg/mL] | MIC (E. coli; E. coli strain TEM) [µg/mL] | MIC (Staph. epi; Staph. epi strain 222) [µg/mL] | MIC (Strep. D; Strep. D strain X66) [µg/mL] | MIC (Staph. aureus; [4]) [µg/mL] | MIC (Staph. aureus; read-out: Agar Dilution MIC) [µg/mL] | MIC (Staph. aureus; [5]) [µg/mL] | MIC (Klebsiella; [6]) [µg/mL] | MIC (Staph. aureus; [7]) [µg/mL] | also measured |
| --- | --- | --- | --- | --- | --- | --- | --- | --- | --- | --- | --- | --- | --- | --- | --- | --- | --- | --- | --- | --- |
| CC1(C)S[C@@H]2[C@H](NC(=O)[C@H](N)c3ccccc3)C(=O)N2[C@H]1C(=O)O [Ampicillin, reference compound] | 8 (≈ 22.9 µM) | 2 (≈ 5.72 µM) | 4 (≈ 11.4 µM) | 8 (≈ 22.9 µM) | 0.03 (≈ 0.0859 µM) | 64 (≈ 183 µM) | 16 (≈ 45.8 µM) | 16 (≈ 45.8 µM) | 16 (≈ 45.8 µM) | 0.5 (≈ 1.43 µM) | 0.03 (≈ 0.0859 µM) | – | – | – | – | – | – | – | – | MIC (Strep. D): 4 µg/mL (≈ 11.4 µM) |
| CC1=C(C(=O)O)N2C(=O)[C@@H](NC(=O)[C@H](N)c3ccccc3)[C@H]2SC1 [Cephalexin, reference compound] | 32 (≈ 92.1 µM) | – | 4 (≈ 11.5 µM) | 8 (≈ 23 µM) | – | 128 (≈ 368 µM) | – | – | – | – | – | 8 (≈ 23 µM) | – | – | – | – | – | – | – | MIC (Staph. epi): 8 µg/mL (≈ 23 µM); Agar Dilution MIC (Strep. D; Strep. D strain 2041): 128 µg/mL; MIC (Strep. D): 128 µg/mL (≈ 368 µM); MIC (Strep. PN): 2 µg/mL (≈ 5.76 µM); MIC (Klebsiella; read-out: Agar Dilution MIC, Klebsiella strain KAE): 128 µg/mL (≈ 368 µM); MIC (Klebsiella; read-out: Agar Dilution MIC, Klebsiella strain X26): 4 µg/mL (≈ 11.5 µM); MIC (Klebsiella; read-out: Agar Dilution MIC, Klebsiella strain X68): 8 µg/mL (≈ 23 µM); MIC (Strep. A): 0.5 µg/mL (≈ 1.44 µM) |
| CC1=C(C(=O)O)N2C(=O)[C@@H](NC(=O)[C@H](N)c3cc4sccc4s3)[C@H]2SC1 [Ex. 1A, 7-D-(thieno[3,2-b]thien-2-yl)-glycylamido-3-methyl-3-cephem-4-carboxylic acid] | 16 (≈ 39.1 µM) | > 64 | > 64 | > 64 | 1 (≈ 2.44 µM) | 64 (≈ 156 µM) | 8 (≈ 19.5 µM) | > 64 | 2 (≈ 4.88 µM) | 64 (≈ 156 µM) | 0.25 (≈ 0.61 µM) | > 64 | 2 (≈ 4.88 µM) | > 64 | > 64 | 32 (≈ 78.1 µM) | 0.5 (≈ 1.22 µM) | > 64 | – | – |
| CC1=C(C(=O)O)N2C(=O)[C@@H](NC(=O)[C@@H](N)c3cc4sccc4s3)[C@H]2SC1 [Ex. 1B, 7-L-(thieno[3,2-b]thien-2-yl)-glycylamido-3-methyl-3-cephem-4-carboxylic acid] | 64 (≈ 156 µM) | > 64 | > 64 | > 64 | 16 (≈ 39.1 µM) | 64 (≈ 156 µM) | > 64 | > 64 | – | 64 (≈ 156 µM) | 16 (≈ 39.1 µM) | > 64 | 16 (≈ 39.1 µM) | > 64 | > 64 | 32 (≈ 78.1 µM) | 8 (≈ 19.5 µM) | > 64 | – | – |
| CC1=C(C(=O)O)N2C(=O)[C@@H](NC(=O)[C@@H](N)c3cc4sc(Cl)cc4s3)[C@H]2SC1 [Ex. 2A, 7-L-(5-chlorothieno[3,2-b]thien-2-yl)glycylamido-3-methyl-3-cephem-4-carboxylic acid] | 16 (≈ 36 µM) | > 64 | > 64 | > 64 | 2 (≈ 4.5 µM) | 32 (≈ 72.1 µM) | 64 (≈ 144 µM) | > 64 | 2 (≈ 4.5 µM) | 64 (≈ 144 µM) | 1 (≈ 2.25 µM) | > 64 | 2 (≈ 4.5 µM) | > 64 | > 64 | – | 1 (≈ 2.25 µM) | > 64 | 64 (≈ 144 µM) | – |
| CC1=C(C(=O)O)N2C(=O)[C@@H](NC(=O)[C@H](N)c3cc4sc(Cl)cc4s3)[C@H]2SC1 [Ex. 2B, 7-D-(5-chlorothieno[3,2-b]thien-2-yl)glycylamido-3-methyl-3-cephem-4-carboxylic acid] | 4 (≈ 9.01 µM) | 64 (≈ 144 µM) | > 64 | > 64 | 0.25 (≈ 0.563 µM) | – | 16 (≈ 36 µM) | > 64 | 2 (≈ 4.5 µM) | 32 (≈ 72.1 µM) | 0.125 (≈ 0.282 µM) | > 64 | 0.5 (≈ 1.13 µM) | > 64 | > 64 | – | 0.25 (≈ 0.563 µM) | > 64 | 16 (≈ 36 µM) | – |
| CC1=C(C(=O)O)N2C(=O)[C@@H](NC(=O)[C@H](N)c3cc4ccsc4s3)[C@H]2SC1 [Ex. 3A, 7-D-(thieno[2,3-b]thien-2-yl)-glycylamido-3-methyl-3-cephem-4-carboxylic acid] | 4 (≈ 9.77 µM) | > 64 | 64 (≈ 156 µM) | > 64 | 0.5 (≈ 1.22 µM) | 16 (≈ 39.1 µM) | 8 (≈ 19.5 µM) | > 64 | 2 (≈ 4.88 µM) | – | 0.25 (≈ 0.61 µM) | > 64 | 1 (≈ 2.44 µM) | > 64 | > 64 | 32 (≈ 78.1 µM) | 0.5 (≈ 1.22 µM) | > 64 | – | – |
| CC1=C(C(=O)O)N2C(=O)[C@@H](NC(=O)[C@@H](N)c3cc4ccsc4s3)[C@H]2SC1 [Ex. 3B, 7-L-(thieno[2,3-b]thien-2-yl)-glycylamido-3-methyl-3-cephem-4-carboxylic acid] | 8 (≈ 19.5 µM) | > 64 | > 64 | > 64 | 2 (≈ 4.88 µM) | 64 (≈ 156 µM) | 16 (≈ 39.1 µM) | > 64 | 1 (≈ 2.44 µM) | 16 (≈ 39.1 µM) | 1 (≈ 2.44 µM) | > 64 | 2 (≈ 4.88 µM) | > 64 | > 64 | – | 1 (≈ 2.44 µM) | > 64 | 64 (≈ 156 µM) | – |
